The values that follow come from patent US20250127698A1, “Hair Perming Compositions With Amine Derivatives” (ELC Management LLC, priority 2023, published 2025).

A short description of series [1]: pH of hair perming composition. In kind it is physicochemical. The note with it: for pH: hair perming composition: base of Table 2 (7.50% thioglycolic acid) plus alkalizer, same molar percentage of alkalizer. From the text: For testing, we prepared the hair perming compositions shown by Tables 2 and 3, below. […] All compositions contain the same molar percentage of alkalizer, the water content being adjusted accordingly.

Series [2] is described as follows: Curl efficiency after hair curling treatment. Set-up: species or system human; % Change In Curl Efficiency From 1 to 8 Washes: concentration or dose not given beside the values. Conditions: for Curl Efficiency (%) After Treatment, 1 Wash and Dry: 1 wash with 5% SDS solution; for Curl Efficiency (%) After Treatment, 8 Washes and Dry: equivalent of 8 washes with 5% SDS solution. From the text:
(§1) The ability of each test composition to curl hair was established by measuring “curl efficiency”. Curl efficiency is a measure of curl tightness following a hair curling treatment. The higher the efficiency, the tighter the curl. We used a well-known method of measuring curl efficiency, wherein a portion of untreated straight hair of known length, Lu, is secured on an arrangement of pegs to form a sine wave pattern of five cycles, crest-to-crest. Because the pegs are fixed, the ideal length, Li, of the portion of hair when arranged into the five-cycle wave pattern, is known. Starting with a straight swatch of hair of length Lu, the ideal outcome would be a curled swatch of hair with a length of Li. Curl efficiency is a measure of how closely the ideal is attained.
(§2) Two types of hair samples were tested for curling; mixed sourced virgin Type 1Caucasian hair, and single sourced virgin Type 1 hair. For straightening, mixed sourced virgin Type 2C (very wavy) Caucasian hair was tested. Hair straightening test samples were prepared by collecting hair fibers into tresses, and clamping each tress at both ends. For those test samples that were to undergo a straightening treatment, the length, Lu, was measured between two previously determined points.
(§3) Each hair tress was wetted (reverse osmosis water). For curling, each hair tress was wound along a peg board to form a sine wave pattern of five cycles, as described above. For straightening, each hair tress was held on a board in a straight conformation, tension was applied, and the ends of the tress were secured. All test samples (curling or straightening) were allowed to dry before proceeding. Each board with a hair tress test sample was dipped for 10 seconds into a beaker with one of the hair perming compositions. After removing a board from solution, it was immediately placed in an oven for 20 minutes at 37° C. (normal body temperature). The test sample was removed from the oven, and rinsed for five minutes with 37° C. water, being careful not to allow the running water to fall directly on the hair tresses. After blotting with a paper towel, test samples were allowed to rest for five minutes at room temperature, for air oxidation to occur. The hair straightening test samples were removed from the board, blow dried and flat ironed at 200° C., which is commonly done in salon practice. At this point, the ideal length, Li, was measured between the two previously determined point mentioned above. Thereafter, each sample was rebound to the board.
(§4) Each bound hair tress was submerged for ten seconds in a 2% solution of H2O2 to neutralize the reducing agent and promote S-S bond formation, so that the hair tress would retain a desired shape (sine wave pattern or straight) when removed from the board. Each hair tress rested at room temperature for about five minutes, then was rinsed under 37° C. running water for five minutes, and subsequently blotted with a paper towel. Each test sample hair tress was removed from the board, laid on a flat surface, and allowed to dry. The fully permed dry tresses were washed in 5% SDS (sodium dodecyl sulfate) solution (which simulates salon practice) and allowed to dry overnight.
(§5) For the curling test samples, the length, Lt, of five waves, crest to crest was measured. For the straightening test samples, the final length, Lt, was measured between the two previously determined points. At this point, differential scanning calorimetry (DSC) measurements were made on a portion of each hair tress test sample. Also, for longevity performance, each tress was subjected to the equivalent of eight hand washings in 5% SDS solution using the GyroWash color fastness to laundering tester, and allowed to dry, before another length measurement, Lt, was made.
(§6) Curl efficiencies were computed using Equation 1.
(§7) [formula] • Lu=length of the untreated hair tress • Lt=crest-to-crest length of the five-wave portion of the treated hair tress • Li=ideal length of curled hair […]

Series [3] can be described thus: Straightening efficiency after hair straightening treatment. Set-up: species or system human. The note with it: Type 2C Caucasian hair; for Straightening Efficiency (%) After Treatment, 1 Wash and Dry: 1 wash with 5% SDS solution.
Description: The ability of each test composition to straighten curly hair was established by measuring “straightening efficiency”. Straightening efficiency represents the degree to which curly hair is made straight by a hair straightening treatment. We start with a curly, untreated hair tress of length Lu. The tress has an ideal straight length of Li, which is the length of the untreated tress when flat ironed to its maximum, straight length. After treatment the tress has a length of Lt. Straightening efficiency is the gain in length as a percentage of the maximum possible gain in length. […] A straightening efficiency of 100% means that the treated tress retained the maximum possible length.
as §2, §3, §4, §5
Straightening efficiencies were computed using Equation 2.
[formula] • Lu=length of the untreated hair tress • Lt=length of treated hair tress • Li=ideal length of straightened hair
(Li−Lu) represents the maximum possible increase in length as a result of treatment. […]

Series [4] is described as follows: DSC keratin denaturation temperature change after curling treatment. Set-up: species or system human. The note with it: for ΔT (TUntreated−TAlkalizer, keratin denaturation temperature): Type 1 Chinese hair after curling treatment, larger ΔT indicates more damage; for damage to hair (in words): hair curling treatment, Type 1 Chinese hair. The source says:
(§8) This damage occurs at the level of keratin proteins.
(§9) Untreated hair was used as a control.
(§10) A larger ΔT indicates more damage.

Series [5] in a line: Curl efficiency after hair curling treatment. Set-up: species or system human. The note with it: for Curl Efficiency (%) After Treatment, 1 Wash and Dry: 1 wash with 5% SDS solution; for Curl Efficiency (%) After Treatment, 8 Washes and Dry: equivalent of 8 washes with 5% SDS solution.
Description: as §1, §2, §3, §4, §5, §6, §7

The nature of series [6]: DSC keratin denaturation temperature change after straightening treatment. The arrangement: species or system human. Conditions: for ΔT (TUntreated−TAlkalizer, keratin denaturation temperature): Type 3 Caucasian hair after straightening, larger ΔT indicates more damage; for damage to hair (in words): hair straightening treatment, Type 3 Caucasian hair.
Description: as §8, §9, §10

A short description of series [7]: DSC keratin denaturation temperature change after curling treatment. The note with it: for ΔT (TUntreated−TAlkalizer, keratin denaturation temperature): Type 1 Caucasian hair after curling treatment, larger ΔT indicates more damage; for damage to hair (in words): hair curling treatment, Type 1 Caucasian hair.
Description: It is known that the denaturation of keratin in hair can be detected by differential scanning calorimetry (DSC). DSC is a thermal analysis technique used to measure phase transition temperatures and heat of transformation (enthalpy) for endothermic and exothermic reactions.
For all of the test samples discussed above, DSC measurements were performed using the Discovery DSC 2500 (from TA Instruments. New Castle, DE). The experiments were carried out over a temperature range of 40° C. to 200° C., with a scan rate of 5° C./min under nitrogen protection. DSC samples were prepared by cutting tress samples into pieces (0.1 to 1.0 mm in size) and weighing. The hair samples were mixed with deionized water, and then sealed in high volume pans for at least 6 hours before measuring. The phase transition temperature (keratin denaturation temperature) of each hair sample was analyzed using TRIOS software (Discovery DSC 2500). Untreated hair was used as a control.
Each hair sample was analyzed at least twice, and the average temperature was obtained for data analysis. This was subtracted from the denaturation temperature of the control sample (ΔT=TUntreated−TAlkalizer). A larger ΔT indicates more damage.

Turning to `CCC(N)(CO)CO` [AEPD, 2-Amino-2-ethyl-1,3-propanediol], the “pH of alkalizer composition” value in series [1] (Table 7) is recorded as 9.09; in series [1] (Table 8), 9.09; in series [1] (Table 9) it was 8.98. Besides, the pH in series [1] was 9.09. Further, the “% Change In Curl Efficiency From 1 to 8 Washes” value in series [2] (Type 1 Chinese hair) is listed as −15.09%; in series [5] (Type 1 Caucasian hair), −6.40%. Further, the “Curl Efficiency (%) After Treatment, 1 Wash and Dry” value in series [2] (Type 1 Chinese hair) was found to be 53.93%; in series [5] (Type 1 Caucasian hair) it was 43.93%. Further, the results for the “Curl Efficiency (%) After Treatment, 8 Washes and Dry” value in series [2] (Type 1 Chinese hair) and in series [5] (Type 1 Caucasian hair) were 45.79% and 41.12%, respectively. Moreover, in series [3], the “Straightening Efficiency (%) After Treatment, 1 Wash and Dry” value is 94.70%. Moreover, the figures for the “ΔT (TUntreated−TAlkalizer, keratin denaturation temperature)” value in series [4], in series [6] and in series [7] were 1.31 C. °, 1.13 °C and 2.36 °C, respectively.

`CC(N)(CO)CO` [AMPD, 2-Amino-2-methyl-1,3-propanediol]: the “pH of alkalizer composition” value is 9.09 in series [1] (Table 7), 9.04 in series [1] (Table 8) and 9.04 in series [1] (Table 9). Further, the pH in series [1] was 9.04. Further, the “straightening (in words)” value in series [3] is “performed better than ammonium hydroxide and MEA, but not as well as AMP”. Moreover, the “ΔT (TUntreated−TAlkalizer, keratin denaturation temperature)” value turned out to be 0.68 C. ° in series [4], 0.32 °C in series [6] and 1.66 °C in series [7]. Also, the “damage to hair (in words)” value in series [4] was “less damage than ammonium hydroxide”.

For the molecule `N.O` [Ammonium hydroxide, reference compound], the “pH of alkalizer composition” value in series [1] (Table 7), in series [1] (Table 8) and in series [1] (Table 9) was 9.14 throughout. Moreover, the pH in series [1] was 9.14. Further, in series [4], the “ΔT (TUntreated−TAlkalizer, keratin denaturation temperature)” value amounted to 0.80 C. °.

As for `CN(C)C(C)(C)CO` [DMAMP, 2-Dimethylamino-2-methyl-1-propanol], the “pH of alkalizer composition” value in series [1] (Table 7) came to 10.18. Also, in series [1] (Table 8), the “pH of alkalizer composition” value turned out to be 10.18. Further, in series [1] (Table 9), the “pH of alkalizer composition” value came out at 10.18. For the same molecule, the pH in series [1] was determined as 10.18. In series [2] (Type 1 Chinese hair), the “% Change In Curl Efficiency From 1 to 8 Washes” value was −17.06%; the “performance in curling, curl retention and degree of damage (FIG. 2, in words)” value was “did not perform as well as ammonium hydroxide, AMP or MEA”; the “Curl Efficiency (%) After Treatment, 1 Wash and Dry” value is 58.60%; the “Curl Efficiency (%) After Treatment, 8 Washes and Dry” value is given as 48.60%. Moreover, in series [3], the “performance in straightening and degree of damage versus ammonium hydroxide, AMP and MEA (FIG. 3, in words)” value was “did perform well”; the “Straightening Efficiency (%) After Treatment, 1 Wash and Dry” value was 93.75%. In series [4], the “ΔT (TUntreated−TAlkalizer, keratin denaturation temperature)” value was found to be 5.78 C. ° and the “damage to hair (in words)” value is “caused the most damage”. In series [5] (Type 1 Caucasian hair), the “% Change In Curl Efficiency From 1 to 8 Washes” value was −20.91%; the “performance in curling, curl retention and degree of damage (FIG. 1, in words)” value was “did not perform as well as ammonium hydroxide, AMP or MEA”; the “Curl Efficiency (%) After Treatment, 1 Wash and Dry” value was found to be 44.86%; the “Curl Efficiency (%) After Treatment, 8 Washes and Dry” value is 35.48%. Moreover, in series [6], the “ΔT (TUntreated−TAlkalizer, keratin denaturation temperature)” value was found to be 1.43 °C and the “damage to hair (in words)” value is recorded as “comparatively little damage”. Besides, in series [7], the “ΔT (TUntreated−TAlkalizer, keratin denaturation temperature)” value was found to be 6.06 °C and the “damage to hair (in words)” value is listed as “almost as much damage as NaOH”.

As to `NCC(O)CO` (stereo not shown) [Isoserinol, 3-Amino-1,2-propanediol], the “pH of alkalizer composition” value in series [1] (Table 7), in series [1] (Table 8) and in series [1] (Table 9) was 9.18 in each case. For the same molecule, the pH in series [1] is on record as 9.18. The “curl after the equivalent of 8 washes (in words)” value in series [2] (Chinese hair) and in series [5] (Caucasian hair) was “ranked second for curl” in each case. In addition, the “curl lost after the equivalent of 8 washes, as percentage of initial curl (in words)” value in series [2] (Chinese hair) and in series [5] (Caucasian hair) was “comparable to or better than the standards” each time. Further, the “% Change In Curl Efficiency From 1 to 8 Washes” value in series [2] (Type 1 Chinese hair) is −10.93%; in series [5] (Type 1 Caucasian hair), −7.69%. Also, the “imparting curl (in words)” value in series [2] (Type 1 Chinese hair) and in series [5] (Type 1 Caucasian hair) was “next best at imparting curl” throughout. In addition, the “Curl Efficiency (%) After Treatment, 1 Wash and Dry” value was found to be 59.81% in series [2] (Type 1 Chinese hair) and 48.60% in series [5] (Type 1 Caucasian hair). In addition, the “Curl Efficiency (%) After Treatment, 8 Washes and Dry” value in series [2] (Type 1 Chinese hair) is 53.27%; in series [5] (Type 1 Caucasian hair) it was 44.86%. In series [3], the “Straightening Efficiency (%) After Treatment, 1 Wash and Dry” value was 97.30%. Besides, the “ΔT (TUntreated−TAlkalizer, keratin denaturation temperature)” value in series [4] amounted to 2.51 C. °; in series [6], 2.17 °C; in series [7], 3.07 °C. Also, in series [4], the “damage to hair (in words)” value is listed as “did not perform as well as the other alkalizers”.

For the molecule `NCCO` [MEA, Monoethanolamine, reference compound], the “pH of alkalizer composition” value in series [1] (Table 7), in series [1] (Table 8) and in series [1] (Table 9) was 9.40 throughout. In addition, in series [1], the pH is reported as 9.40. The results for the “% Change In Curl Efficiency From 1 to 8 Washes” value in series [2] (Type 1 Chinese hair) and in series [5] (Type 1 Caucasian hair) were −13.43% and −7.41%, respectively. For the same molecule, the “Curl Efficiency (%) After Treatment, 1 Wash and Dry” value in series [2] (Type 1 Chinese hair) came to 64.77%; in series [5] (Type 1 Caucasian hair), 50.47%. Besides, the “Curl Efficiency (%) After Treatment, 8 Washes and Dry” value in series [2] (Type 1 Chinese hair) is on record as 56.07%; in series [5] (Type 1 Caucasian hair) it was 46.73%. Moreover, in series [3], the “Straightening Efficiency (%) After Treatment, 1 Wash and Dry” value came out at 65.38%.

As for `NC(CO)(CO)CO` [Tris, Tromethamine], the “pH of alkalizer composition” value in series [1] (Table 7), in series [1] (Table 8) and in series [1] (Table 9) was 8.36 each time. In series [1], the pH turned out to be 8.36. In addition, the “straightening (in words)” value in series [3] was “performed better than ammonium hydroxide and MEA, but not as well as AMP”. Besides, the “ΔT (TUntreated−TAlkalizer, keratin denaturation temperature)” value was −0.77 C. ° in series [4], 0.07 °C in series [6] and 1.11 °C in series [7]. Also, the “damage to hair (in words)” value in series [4], in series [6] and in series [7] was “less damage than ammonium hydroxide” throughout.
